Values quoted from earlier work as cited in PMC7464078, “CYP3A Excipient-Based Microemulsion Prolongs the Effect of Magnolol on Ischemia Stroke Rats” (Pharmaceutics, 2020).
Read-outs that look alike come from different tables or passages of the source. Blank lines part the entries; values can stand above or below the molecule they belong to.

Key:
[1] = design: method as in PMID 21638244
CYP3A = test system: CYP3A; design: method as in PMID 14716751, PMID 11137342; details: hepatocytes and liver microsomes

Molecule: C=CCc1ccc(O)c(-c2cc(CC=C)ccc2O)c1 [Magnolol, 5,5′-diallyi-2,2′-dihydroxybiphenyl]
Inhibition of rat CYP2E1 (rat CYP2E1; in vitro): relatively strong inhibitors | Inhibition of human CYP3A4 (human CYP3A4; in vitro): weak inhibitors | Bioavailability [1]: 4% | Inhibition of rat CYP1A2 (rat CYP1A2; in vitro): relatively strong inhibitors | Inhibition of rat CYP3A (rat CYP3A; in vitro): weak inhibitors | Water solubility (at 25 °C): 1.24 µg/mL | Solubility in dimethyl sulfoxide (ref Item No. 14233, Cyman Chemical): approximately 16 mg/mL

Inhibition of rat CYP2E1 (rat CYP2E1): relatively strong inhibitors | Inhibition of human CYP3A4 (human CYP3A4): weak inhibitors | Inhibition of rat CYP1A2 (rat CYP1A2): relatively strong inhibitors | Inhibition of rat CYP3A (rat CYP3A): weak inhibitors
Molecule: C=CCc1ccc(O)c(-c2ccc(O)c(CC=C)c2)c1 [honokiol]

Effect on CYP3A activity (CYP3A): inhibited
Molecule: Tween-80
